Entries after “also recorded” stand apart in the source; their conditions may differ.
What was measured:
beta-catenin [1] = experiment: FACS analysis of activated beta-catenin in LSC engrafted mice; type: in vivo, human; details: LSC engrafted mice BM; compared with vehicle controls
Description: A lentiviral TCF/LEF reporter was utilized in human blast crisis CML cells, K562^1. Lentiviral pCDH backbone, ADAR1^WT, shControl, and shADAR1 K562 stable cell lines were transduced with pGreenFire1-TCF/LEF1 reporter (SBI) lentivirus for 72-hours and analyzed using CellTiter-Glo and One-Glo luciferase assays (Promega). Mean fluorescence intensity (MFI) of activated beta-catenin in human CD45^+ cells, HSCs (CD45^+CD34^+CD38^− Lin) and HPCs (CD45^+CD34^+[…] Lin) from engrafted mouse bone marrow and spleen was analyzed with a Miltenyi Biotec MACS Quant flow cytometer after staining with lineage, CD45, CD34 and CD38 (BD antibodies) as well as LIVE/DEAD stain, followed by 1% paraformaldehyde fixation, permeabilization with saponin, and staining with an anti-active beta-catenin antibody (Millipore cat #05-665, and BD custom conjugation) (see Supplementary Appendix).
To assess WNT/beta-catenin activation in response to ADAR1 upregulation, a lentiviral TCF/LEF reporter was utilized in human blast crisis CML cells, K562^26. […] A minimum of 50,000 cells were plated in duplicate, lysed according to the manufacturer's protocol, and measured using preloaded protocols on a Promega GloMax Discover Microplate Reader. One-Glo luciferase readouts were normalized to corresponding CellTiter-Glo values. […]

beta-catenin [2] = experiment: qRT-PCR gene expression in BC CML CD34+ cells in stromal co-culture; type: cell-based, human; details: imetelstat monotherapy 5 μM for 14 days vs mismatch control
Protocol: (§1) FIG. 7 illustrates supplementary FIG. 2, where gene expression qRT-PCR analyses of human CD34^+ cells sorted from BC CML patient samples (n=3) and MF patient samples (n=5) that were co-cultured with SL/M2 stromal cells and treated with mismatch control or imetelstat at 5 μM for 14 days.

ADAR1 = experiment: as above; type: cell-based, human; details: imetelstat monotherapy 5 μM for 14 days vs mismatch control
Protocol: as §1

TERT = experiment: RNA-seq of human CD45+ cells from treated BC CML mice; type: in vivo; details: surviving human CD45+ cells; imetelstat compared with vehicle; p<0.01
Protocol: For gene expression and RNA editing analysis, RNA editing sites were identified in REDIportal^34 (see the Supplementary Appendix). […] Gene Set Enrichment Analysis was performed with the Bioconductor package GSVA (see the Supplementary Appendix)^36. For in vitro and in vivo experiments, the Student's t-test was utilized to evaluate statistical significance of normally distributed data and Wilcoxon tests were utilized for non-normally distributed data with a p value of <0.05.
FastQC (Andrews, S. & Others. FastQC: a quality control tool for high throughput sequence data. (2010) was used to perform quality control on raw fastq files. Sequencing reads were aligned to the human genome (hg19) using the STAR v2.5.1a aligner^19. RSEM^20 v1.3.0 and GENCODE annotation (genocode.v19.annotation.gtf) were used for read and transcript quantification, and R BioConductor packages edgeR^21 and Limma^22 were used to implement the limma-voom^23 method for differential expression analysis at both the gene and transcript levels. The experimental design was modeled upon disease and tissue type (˜0+disease; ˜0+tissue; ˜0+disease+tissue). Significance was defined by using an adjusted p-value cut-off of 0.05 after multiple testing correction using a moderated t-statistic in Limma. […] Gene Set Enrichment Analysis was performed with the Bioconductor package GSVA^25.
FIG. 5C. […]

[3] = Tolerability (change in percent body weight) in xenograft models; type: in vivo; details: mice transplanted with CB, BC CML or MF progenitors
Description: FIG. 8A graphically illustrates data showing the change in percent body weight in mice transplanted with cord blood (CB) treated with vehicle (black), mismatch control (blue) or imetelstat (red);
FIG. 8B graphically illustrates data showing the change in percent body weight in mice transplanted with BC CML treated with vehicle (black), mismatch control (blue) or imetelstat (red);
FIG. 8C graphically illustrates data showing the change in percent body weight in mice transplanted with myelofibrosis (MF) progenitors treated with vehicle (black), mismatch control (blue) or imetelstat (red);

imetelstat
activated beta-catenin expression / activity by FACS (beta-catenin [1]): significant reduction; also recorded: significantly reduced | beta-catenin self-renewal gene expression by qRT-PCR (beta-catenin [2]): ineffective | ADAR1 gene expression by qRT-PCR (ADAR1): ineffective | TERT expression by RNA-seq (TERT): reduction | tolerability [3]: well tolerated
